Structures are written as SMILES.

The first assay concerns the target T1, Human autotaxin enzyme (Homo sapiens, UniProt Q13822).
T1 construct: purchased R&D System
Briefly: Evaluation of autotaxin inhibitor, Method B (Test Example 2): TG-mTMP fluorescence. The format is biochemical. The note with it: Assay Method B (Test Example 2), human autotaxin; read-out: Inhibitory Activity (autotaxin enzyme inhibitory activity, IC50 class). Here is the method:
(Method B) Evaluation of Autotaxin Inhibitor
Solution A containing 25 mM Tris-HCl buffer (pH7.5), 100 mM NaCl, 5 mM MgCl2 and 0.1% BSA was prepared. Human autotaxin enzyme (purchased from R&D System) was diluted with Solution A, and 5 μL of which was added to a solution of test compound in DMSO. Furthermore, 5 μl of 0.5 μM TG-mTMP in Solution A was added and allowed to react at room temperature for 2 hours. 5 μl of 150 mM EDTA in Solution A was added to quench the reaction, and the fluorescent dye TokyoGreen, which was produced by the reaction, was detected. The fluorescence was detected using ViewLux (PerkinElmer, Inc.) with an excitation wavelength of 480 nm and a fluorescence wavelength of 540 nm.
Usually IC50 stands for the point on the concentration scale where inhibition reaches its midpoint. For the molecule `CCC(CC)Cn1c(C)cc(=O)n2cc(-c3ccc(Cl)cc3)nc12` [Compound 87], the 50% inhibitory concentration (IC50) was in the range of 10 to 100 nM. For `Cc1cc(=O)n2cc(-c3ccc(Cl)cc3)nc2n1Cc1ccc(-c2ccccc2)cc1` [Compound 88], the IC50 fell in the range of 100 to 1000 nM.

With `Cc1cc(=O)n2cc(-c3ccc(Cl)cc3)nc2n1Cc1ccc(OCCCN(C)C)cc1` [Compound 89], the IC50 was under 10 nM. On the same count and under the same terms, with `Cc1cc(=O)n2cc(-c3ccc(Cl)cc3)nc2n1Cc1ccc(Cl)cc1F` [Compound 90] the figure was 10 to 100 nM; with `Cc1cc(=O)n2cc(-c3ccc(Cl)cc3)nc2n1Cc1ccc(-c2ncccn2)cc1` [Compound 91], 10 to 100 nM; with `Cc1cncc(Oc2ccc(Cn3c(C)cc(=O)n4cc(-c5ccc(Cl)cc5)nc34)cc2)n1` [Compound 92], 10 to 100 nM. Turning to `Cc1cc(=O)n2cc(-c3ccc(Cl)cc3)nc2n1Cc1ccc(Oc2ccccc2)cc1` [Compound 93], the IC50 is over 1000 nM.

With `Cc1cc(=O)n2cc(-c3ccc(Cl)cc3)nc2n1CCCCF` [Compound 94], the IC50 lay in the range of 10 to 100 nM. Same read-out and setting: under `Cc1cc(=O)n2cc(-c3ccc(Cl)cc3)nc2n1Cc1ccc(C(C)C)cc1` [Compound 95] stands 10 to 100 nM; under `Cc1cc(=O)n2cc(-c3ccc(Cl)cc3)nc2n1Cc1cccc(OCC(=O)O)c1` [Compound 96], 100 to 1000 nM; under `Cc1cc(=O)n2cc(-c3ccc(Cl)cc3)nc2n1Cc1ccc(Br)cc1F` [Compound 97], 10 to 100 nM. On the same count and under the same terms, under `Cc1cc(=O)n2cc(-c3ccc(Cl)cc3)nc2n1Cc1ccc(C(=O)O)cc1` [Compound 99] stands 100 to 1000 nM.

Turning to `Cc1cc(=O)n2cc(-c3ccc(Cl)cc3)nc2n1C(C)c1cccc(F)c1` (stereo not shown) [Compound 100], the IC50 is 10 to 100 nM. With `Cc1cc(=O)n2cc(-c3ccc(Cl)cc3)nc2n1Cc1ccc(F)cc1F` [Compound 101], the IC50 lay within 10 to 100 nM. The same measure, in the same setting: with `Cc1cc(=O)n2cc(-c3ccc(Cl)cc3)nc2n1Cc1ccc2ccccc2c1` [Compound 102] the figure was 100 to 1000 nM. The same measure, in the same setting: under `COC(=O)c1ccc(Cn2c(C)cc(=O)n3cc(-c4ccc(Cl)cc4)nc23)cc1` [Compound 103] stands 10 to 100 nM; under `Cc1cc(=O)n2cc(-c3ccc(Cl)cc3)nc2n1Cc1ccc(Cl)c(Cl)c1` [Compound 104], 10 to 100 nM. As to `Cc1cc(=O)n2cc(-c3ccc(Cl)cc3)nc2n1Cc1ccc(S(C)(=O)=O)cc1` [Compound 105], the IC50 lay in the range of 10 to 100 nM. Still for that read-out and setting: under `Cc1cc(=O)n2cc(-c3ccc(Cl)cc3)nc2n1CCCC#N` [Compound 106] stands 10 to 100 nM; under `Cc1cc(=O)n2cc(-c3ccc(Cl)cc3)nc2n1CC1CCCO1` (stereo not shown) [Compound 107], 100 to 1000 nM.

Take `Cc1cc(=O)n2cc(-c3ccc(Cl)cc3)nc2n1C(C)c1cccc(C(F)(F)F)c1` (stereo not shown) [Compound 108]: the IC50 lay in the range of 10 to 100 nM. The same measure, in the same setting: under `Cc1cc(=O)n2cc(-c3ccc(Cl)cc3)nc2n1Cc1ccncc1` [Compound 109] stands 100 to 1000 nM. The same measure, in the same setting: with `Cc1cc(=O)n2cc(-c3ccc(Cl)cc3)nc2n1Cc1ccc(C(N)=O)cc1` [Compound 110] the figure was 10 to 100 nM; with `Cc1cc(=O)n2cc(-c3ccc(Cl)cc3)nc2n1Cc1ccc(C(=O)c2ccccc2)cc1` [Compound 111], 100 to 1000 nM; with `COC(=O)Cc1ccc(Cn2c(C)cc(=O)n3cc(-c4ccc(Cl)cc4)nc23)cc1` [Compound 112], 10 to 100 nM. Still for that read-out and setting: under `Cc1cc(=O)n2cc(-c3ccc(Cl)cc3)nc2n1Cc1ccc(S(=O)(=O)C(F)F)cc1` [Compound 113] stands 10 to 100 nM; under `Cc1cc(=O)n2cc(-c3ccc(Cl)cc3)nc2n1Cc1ccccn1` [Compound 114], 10 to 100 nM.

`Cc1cc(=O)n2cc(-c3ccc(Cl)cc3)nc2n1Cc1cccc(C(F)(F)F)c1` [Compound 115]: the IC50 lay in the range of 10 to 100 nM. On the same count and under the same terms, with `Cc1cc(=O)n2cc(-c3ccc(Cl)cc3)nc2n1Cc1ccc(C(F)(F)F)cc1` [Compound 116] the figure was 100 to 1000 nM; with `Cc1cc(=O)n2cc(-c3ccc(Cl)cc3)nc2n1Cc1cccnc1` [Compound 117], 10 to 100 nM; with `Cc1cc(=O)n2cc(-c3ccc(Cl)cc3)nc2n1CC1CCOC1` (stereo not shown) [Compound 118], 100 to 1000 nM.

Take `Cc1cc(=O)n2cc(-c3ccc(Cl)cc3)nc2n1Cc1ccc(COc2ccccc2)cc1` [Compound 120]: the half-maximal inhibitory concentration (IC50) was over 1000 nM. For `Cc1cc(=O)n2cc(-c3ccc(Cl)cc3)nc2n1Cc1cccc(F)c1` [Compound 121], the IC50 lay in the range of 10 to 100 nM. Still for that read-out and setting: with `Cc1cc(=O)n2cc(-c3ccc(Cl)cc3)nc2n1Cc1ccc(OC(F)(F)F)cc1` [Compound 122] the figure was 100 to 1000 nM; with `Cc1cc(=O)n2cc(-c3ccc(Cl)cc3)nc2n1Cc1ccc(C(C)(C)C)cc1` [Compound 123], 100 to 1000 nM; with `COCCCCn1c(C)cc(=O)n2cc(-c3ccc(Cl)cc3)nc12` [Compound 124], 10 to 100 nM. Same read-out and setting: under `CCCc1cn2c(=O)ccn(CCc3ccc(Cl)cc3)c2n1` [Compound 128] stands over 1000 nM; under `CCCc1cn2c(=O)ccn(CCCc3ccc(Cl)cc3)c2n1` [Compound 129], over 1000 nM; under `CCCCCn1c(C)cc(=O)n2cc(-c3ccccc3)nc12` [Compound 138], 100 to 1000 nM. On the same count and under the same terms, with `CCCCCn1c(C)cc(=O)n2cc(C3CCCCC3)nc12` [Compound 139] the figure was 100 to 1000 nM. Turning to `CCCCCn1c(C)cc(=O)n2cc(-c3coc4ccccc34)nc12` [Compound 140], the IC50 lay in the range of 100 to 1000 nM. On the same count and under the same terms, under `CCCCCn1c(C)cc(=O)n2cc(-c3ccc(Oc4ccccc4)cc3)nc12` [Compound 141] stands 10 to 100 nM; under `CCCCCn1c(C)cc(=O)n2cc(-c3cc4ccccc4s3)nc12` [Compound 142], 10 to 100 nM. Same read-out and setting: under `CCCCCn1c(C)cc(=O)n2cc(-c3cc4ccccc4o3)nc12` [Compound 143] stands 100 to 1000 nM; under `CCCCCn1c(C)cc(=O)n2cc(-c3ccsc3)nc12` [Compound 144], 100 to 1000 nM; under `CCCCCn1c(C)cc(=O)n2cc(-c3ccc(C4CCCCC4)cc3)nc12` [Compound 145], over 1000 nM.

With `CCCCCn1c(C)cc(=O)n2cc(-c3ccc4occc4c3)nc12` [Compound 146], the IC50 fell in the range of 100 to 1000 nM. On the same count and under the same terms, with `CCCCCn1c(C)cc(=O)n2cc(-c3cccc(Cl)c3)nc12` [Compound 147] the figure was over 1000 nM.

For the molecule `CCCCCn1c(C)cc(=O)n2cc(-c3ccc(N4CCCC4=O)cc3)nc12` [Compound 148], the IC50 was over 1000 nM.

For the molecule `CCCCCn1c(C)cc(=O)n2cc(-c3ccc4c(c3)CCO4)nc12` [Compound 149], the IC50 fell in the range of 100 to 1000 nM.

`CCCCCn1c(C)cc(=O)n2cc(-c3ccc4c(c3)CCC4)nc12` [Compound 150]: the IC50 was in the range of 100 to 1000 nM. On the same count and under the same terms, under `CCCCCn1c(C)cc(=O)n2cc(-c3ccc(C(=O)OCC)cc3)nc12` [Compound 151] stands over 1000 nM; under `CCCCCn1c(C)cc(=O)n2cc(-c3ccc(OC)cc3)nc12` [Compound 152], 10 to 100 nM. Same read-out and setting: with `CCCCCn1c(C)cc(=O)n2cc(-c3ccc4ccccc4c3)nc12` [Compound 153] the figure was over 1000 nM; with `CCCCCn1c(C)cc(=O)n2cc(-c3ccc(C)cc3C)nc12` [Compound 154], 10 to 100 nM.

`CCCCCn1c(C)cc(=O)n2cc(-c3ccc(OC(F)F)cc3)nc12` [Compound 155]: the IC50 lay within 10 to 100 nM. On the same count and under the same terms, with `CCCCCn1c(C)cc(=O)n2cc(-c3ccc(OC(F)(F)F)cc3)nc12` [Compound 156] the figure was under 10 nM; with `CCCCCn1c(C)cc(=O)n2cc(-c3ccc(C#N)cc3)nc12` [Compound 157], under 10 nM; with `CCCCCn1c(C)cc(=O)n2cc(-c3ccc(Cl)cc3Cl)nc12` [Compound 158], 10 to 100 nM.

With `CCCCCn1c(C)cc(=O)n2cc(-c3ccc(N(CC)CC)cc3)nc12` [Compound 159], the IC50 was over 1000 nM.

Turning to `CCCCCn1c(C)cc(=O)n2cc(-c3ccc4c(c3)OCCCO4)nc12` [Compound 160], the IC50 was in the range of 100 to 1000 nM. The same measure, in the same setting: with `CCCCCn1c(C)cc(=O)n2cc(-c3ccc(C(F)(F)F)cc3)nc12` [Compound 161] the figure was under 10 nM. Take `CCCCCn1c(C)cc(=O)n2cc(-c3ccc(F)cc3F)nc12` [Compound 162]: the IC50 fell in the range of 100 to 1000 nM. The same measure, in the same setting: under `CCCCCn1c(C)cc(=O)n2cc(-c3ccccc3F)nc12` [Compound 163] stands 100 to 1000 nM.

In the case of `CCCCCn1c(C)cc(=O)n2c(C=O)c(-c3ccc(Cl)cc3)nc12` [Compound 167, 2-(4-chlorophenyl)-7-methyl-5-oxo-8-pentyl-5,8-dihydroimidazo[1,2-a]pyrimidine-3-carbaldehyde], the IC50 fell in the range of 100 to 1000 nM.

The assay is the same for the next values; noted with them: Assay Method: Method B (Test Example 2); read-out: Inhibitory Activity (Enzyme Inhibitory Activity, IC50).
In the case of `Cc1cc(=O)n2cc(-c3ccc(Cl)cc3)nc2n1CCC(C)C` [Compound 79], the IC50 lay within 10 to 100 nM.

`CCOC(=O)C(C)n1c(C)cc(=O)n2cc(-c3ccc(Cl)cc3)nc12` (stereo not shown) [Compound 80]: the IC50 was in the range of 10 to 100 nM.

As for `Cc1cc(=O)n2cc(-c3ccc(Cl)cc3)nc2n1CCCC(C)C` [Compound 81], the IC50 was under 10 nM. For `Cc1cc(=O)n2cc(-c3ccc(Cl)cc3)nc2n1CCc1ccccc1` [Compound 82], the IC50 lay within 10 to 100 nM. Still for that read-out and setting: under `Cc1cc(=O)n2cc(-c3ccc(Cl)cc3)nc2n1C1CCC1` [Compound 83] stands 10 to 100 nM. On the same count and under the same terms, with `CCCC(Cn1c(C)cc(=O)n2cc(-c3ccc(Cl)cc3)nc12)OS(C)(=O)=O` (stereo not shown) [Compound 84] the figure was under 10 nM; with `Cc1cc(=O)n2cc(-c3ccc(Cl)cc3)nc2n1Cc1ccc(OCCN2CCCC2)cc1` [Compound 85], under 10 nM; with `CCOC(=O)c1ccc(Cn2c(C)cc(=O)n3cc(-c4ccc(Cl)cc4)nc23)cc1` [Compound 86], 100 to 1000 nM.

For the origin of these results see patent publication US20160002247A1, “8-SUBSTITUTED IMIDAZOPYRIMIDINONE DERIVATIVE HAVING AUTOTAXIN INHIBITORY ACTIVITY” (THE UNIVERSITY OF TOKYO, priority 2013, published 2016).
